Test results taken from patent US10912767B2, “Anthracycline prodrugs and methods of making and using the same” (THE REGENTS OF THE UNIVERSITY OF COLORADO, priority 2015, dated 2021).
Where two headings read alike, the source gives them in different places.

Columns and labels:
[1] = system: NCI/ADR-RES multi-drug resistant ovarian cancer cell line; experiment: Tumor cell growth inhibition, crystal violet (Example 2); format: cell-based; settings: Homo sapiens
Description: (§1) In order to investigate the photolysis of the drugs in a system amenable to cell culture use, a custom UV irradiation apparatus was constructed, consisting of 3 small blacklight fluorescent bulbs (Southern New England Ultraviolet Co., λmax=350 nm) set between two ring stands and suspended at a height of 11.5 cm. The bulbs' housing was reflective aluminum so as to direct as much UV irradiation as possible downward toward the plate. Upon installation in sterile cell culture hood, the power of the system was measured at approximately 6-7 mW using a Scientech laser power meter. Prior to experimentation, the hood and irradiation apparatus was sterilized with 254 nm germicidal UV irradiation overnight. Using this setup, 100 μM of 4,5-dimethoxy-2-nitrobenyl alcohol (DMNA), photodoxazolidine R═H, and glucose-PEG-photodoxazoldine were irradiated in individual wells of a 24-well plate. Initially, 50 μL of a DMSO stock was diluted with 950 μL of PBS and aliquots of 50 μL were removed at various times (0-180 min), mixing by pipetting each time. The timepoints were analyzed by HPLC (method 2) and plotted as fractional conversion versus time. […] Therefore, a second experiment was performed in which the PBS was replaced with 1:1 acetonitrile:water. With this system of 5% DMSO/47.5% acetonitrile/47.5% water, no visible precipitation was produced over the course of the reaction.
(§2) The ovarian carcinoma line NCl/ADR-RES (ADR) was grown in high-glucose Dulbecco's Modified Eagle Medium (DMEM) supplemented with 10% fetal bovine serum (FBS), 200 units/mL of penicillin and 200 μg/mL of streptomycin. The breast carcinoma line MDA-MB-231 was cultured in low-glucose DMEM with the same additives. Both lines were maintained in a humidified incubator with 5% CO2/95% air at 37° C. UV irradiations were performed with the apparatus described above.
(§3) Growth inhibition experiments were performed by seeding cells into 96-well plates or 24-well plates at densities of 1000-1500 cells per well or 8000 cells per well, respectively, and allowing the cells to adhere overnight. The media was then replaced with a range of aqueous concentrations of the drug in question and allowed to incubate at 37° C. with the cells for a span of time (Inc1) which ranged from 1 min to 48 hours. Irradiation was performed at room temperature with the plate's lid removed and ranged from 1 to 30 min. In some experiments, the drug solution was removed following Inc1 and irradiated in clean media or PBS. Following irradiation, the cells were placed back into the 37° C. incubator for a second period of incubation (Inc2), which varied between 1 min and 24 h, prior to replacement with fresh media. Plates which received no irradiation but identical treatment otherwise were done in parallel. The cells were then grown until the no-drug control wells reached approximately 80% confluence or 5 days, whichever was shorter. […] The cells were fixed with 5% formalin in PBS, stained with crystal violet, washed with tap water, and air-dried. The stain was resolubilized in 50% isopropyl alcohol, 50% H2O containing 2% (w/v) SDS. The staining density was read on a multiwell plate reader at 588-600 nm. Percentage cell density was calculated relative to the irradiated no-drug control wells, plotted as a function of drug concentration, and fit using non-linear least squared analysis with a variable-slope dose response model in GraphPad Prism 5.0 software.
(§4) Although the introduction of a long-pass glass filter between the light source and the plate alleviated this effect to a small extent, a maximum irradiation time of 10 min was settled upon. […] Since a media change at that point would remove the cells as well, the re-adherence of the cell population was accomplished by the addition of a large volume (200 μL) of complete media following Inc2, and overnight incubation. Then, a full media change was done to remove the drug. […]

[2] = system: MDA-MB-231 breast cancer cells; experiment: as above; format: cell-based, human; settings: Homo sapiens
Description: as §1, §2, §3, §4

[3] = 37° C., pH 7.4; cited from earlier work
[4] = Quantum yield of photocleavage, He-Cd laser 325 nm, HPLC; format: physicochemical
Protocol: Initially, measurement of the quantum yield of photodoxazolidine R═H was done in a fully-absorbing solution of photoactive drug in a solution of 90% dimethylacetamide (DMA), 10% water in a 1×1 cm quartz cuvette equipped with a small magnetic stir bar. A stock of photodoxazolidine in DMA was diluted in 9:1 DMA:H2O to a final concentration of 373 μM in a final volume of 3.380 mL. […] The cuvette was placed into the path of an Omnichrome He-Cd laser (single-window power: 10.75 mW at 325 nm using a Scientech laser power meter). The solution was mixed by the stir bar, which was agitated with a magnetic stir plate placed vertically next to the cuvette. Aliquots of 20 μL were removed at times between 0 and 62 min of irradiation and those aliquots were analyzed by HPLC (method 2) for the ratio of dox to photodoxazolidine. The quantum yield was calculated from the ratio of molecules of doxorubicin (dox) formed to photons absorbed.
To allow for better comparison between the quantum yield of photocleavage of photodoxazolidine with the quantum yield for azido-PEG-photodoxazolidine, the measurement was retaken with 50% acetonitrile in water as a solvent. […] Photodoxazolidine (in DMF) was diluted with 30 mL of 50% acetonitrile to a final concentration of 104 μM. The solution was confirmed to be fully absorbing by monitoring the laser power exiting the cell throughout the course of the experiment, which never deviated from 0 mW. As above, the contents of the cell were mixed with a small magnetic stir bar. Aliquots of 50 μL were removed at various times and analyzed as described above. The calculated quantum yield in this solvent system was identical to that measured from the […] system used above.
Concentration of azido-PEG-photodoxazolidine was determined via absorbance (λ=480 nm, ε=11500 M^−1 cm^−1). A sample ([…]) was dissolved in 1 mL of ACN and transferred to a cuvette. A 12.4 mW Omnichrome HeCd was used to irradiate the solution for 30 min at 325 nm. Aliquots of 10 μL were collected at different times and analyzed by HPLC to determine the % Dox in relation to that of azido-PEG-photodoxazolidine. In calculating quantum yield: power (without cuvette)=12.4 mW, (with cuvette)=10.7 mW, incident light=11.55 mW; energy=0.462 J, 7.55×1017 photons; t=40 sec when % Dox=9.2. Experiments were performed in triplicate.
Azido-PEG-photodoxazolidine was irradiated with a 12.4 mW monochromatic laser at 325 nm for 30 min. Aliquots were collected throughout to determine the amount of azido-PEG-photodoxazolidine in relation to released doxorubicin, which was quantified by HPLC. […] The average of triplicate quantum yield experiments was 0.025. This value is in the low end of the quantum yield range, yet is beneficial because it signifies that UV must be applied for longer durations prior to release of the cytotoxic agent. This makes administration of this photo-activated prodrug safer, and its synthesis more practical.

[5] = system: MDA-MB-231 breast carcinoma cells; experiment: Tumor cell uptake by flow cytometry; format: cell-based, human; settings: 500 nM, 30 min to 4 h, compared against doxorubicin
Protocol: Uptake of the drugs by the cells was measured by flow cytometry. The cells were incubated with 500 nM photodoxazolidine R═H, azido-PEG-photodoxazolidine, or doxorubicin dissolved in 1:1 PBS:serum-free media for between 30 min and 4 h, after which the drug was removed and the cells washed with cold PBS. Cells were trypsinized to a single-cell suspension, rinsed again in cold PBS, and stored on ice for analysis by flow cytometry, monitoring the presence of the anthraquinone fluorophore (channel FL2). Cell populations were gated for intact cells in the side-scatter/forward-scatter plot and 10,000 gated events were scored for each timepoint. The mean fluorescence of the population was compared to the mean fluorescence of 10,000 gated events for an untreated population and the fold increase over background was plotted versus time of drug incubation.
Using MDA-MB-231 breast carcinoma cells, the cellular uptake of photodoxazolidine and azido-PEG-photodoxazolidine was analyzed by flow cytometry and compared against the uptake of doxorubicin.

cancer cells = settings: cited from earlier work
[6] = In vivo body weight change as indication of toxicity; design: species or system nude mice; settings: 4 mg/kg dox equivalent iv weekly x6; photodoxazolidine with 18-FDG ip
Protocol: For reconstitution for intravenous injection into mice, dry photodoxazolidine R═H (23 mg) was dissolved in 785 μL of DMSO for a final concentration of 34.5 mM, labeled “Drug Stock,” and stored dark at −20° C. Shortly before injection, the Drug Stock was thawed and 20-50 μL was transferred to a new tube. To this tube, 6 volumes (relative to the Drug Stock volume) of PEG-400 and 4 volumes of propylene glycol (PG) were added and the solution thoroughly mixed by vortexing. Immediately prior to injection, 9 volumes of saline (0.9% NaCl) was added to the DMSO/PEG/PG solution of photodoxazolidine and mixed by vortexing. […] Therefore, this formulation was used as prepared. This protocol produces a final formulation of 5% DMSO, 30% PEG-400, 20% PG, 45% saline. A standard injection of 100 μL of this formulation delivers 4 mg dox equivalent/kg body weight for a mouse weighing 0.025 kg.
Luciferase-positive MDA-MB-231 cells were maintained in MEM culture medium supplemented with 10% heat inactivated fetal bovine serum and 2% penicillin/streptomycin. Prior to injection, typsinized cell populations were counted with a Z1 Coulter Particle counter, centrifuged, and resuspended in Hank's Balanced Salt Solution (HBSS) at a concentration of 4.0×10^7 cells/mL. […] Body weight and tumor growth were measured regularly. Tumor growth was measured optically from the bioluminescence signal from injection of luciferin. […]

In the case of `COc1cccc2c1C(=O)c1c(O)c3c(c(O)c1C2=O)C[C@@](O)(C(=O)CO)C[C@@H]3O[C@H]1C[C@@H]2NCO[C@@H]2[C@H](C)O1` [Doxaz, doxazolidine, reference compound], the IC50 ([1]; 3 h) is listed as 3 ± 0.2 nM, the IC50 ([2]; MDA-MB-231, 3 h) is listed as 5 to 10 nM and the half-life [3] is listed as 3 min.

In the case of `COc1cc(C(C)OC(=O)N2CO[C@@H]3[C@H](C)O[C@@H](O[C@H]4C[C@](O)(C(=O)CO)Cc5c(O)c6c(c(O)c54)C(=O)c4c(OC)cccc4C6=O)C[C@@H]32)c([N+](=O)[O-])cc1OCC(=O)NCCOCCOCCOCCN=[N+]=[N-]` (mixture of isomers) [Azido-PEG-photodoxazolidine], the “quantum yield, fold larger than photodoxazolidine” value [4] is reported as 5-10 fold, the doxorubicin released ([4]; 40 sec irradiation, 12.4 mW laser at 325 nm) is reported as 9.2% and the quantum yield ([4]; ACN, 325 nm, average of triplicate) is reported as 0.025. The quantum yield ([4]; stated as suspected) was 0.01-0.02, the IC50 ([1]; 10 min) was 81 ± 7 nM and the “cellular uptake (cellular fluorescence)” value [5] was “only marginally improved uptake over doxorubicin”.

For `COc1cccc2c1C(=O)c1c(O)c3c(c(O)c1C2=O)C[C@@](O)(C(=O)CO)C[C@@H]3OC1CC2C(OCN2CN2COC3C(C)OC(O[C@H]4C[C@](O)(C(=O)CO)Cc5c(O)c6c(c(O)c54)C(=O)c4c(OC)cccc4C6=O)CC32)C(C)O1` (stereo partly shown) [DoxF], the “anti-tumor activity, fold above doxorubicin” value (cancer cells) is listed as “approximately 100 fold”.

With `COc1cccc2c1C(=O)c1c(O)c3c(c(O)c1C2=O)C[C@@](O)(C(=O)CO)C[C@@H]3O[C@H]1C[C@H](N)[C@H](O)[C@H](C)O1` [Dox, doxorubicin, reference compound] the IC50 ([1]; 3 h treatment, read-out: IC50) was 10000 nM, the IC50 ([2]; MDA-MB-231, 3 h treatment, read-out: IC50) was 360 ± 30 nM and the body weight change [6] was “significant weight loss”.
